Experimental data published in US12606558B2, “Condensed pyrazole derivatives as inhibitors of SARM1” (Disarm Therapeutics, Inc., priority 2020, dated 2026).

Target: T1, SARM1 (Homo sapiens, UniProt Q6SZW1)
T1 construct: made in house; host or cells: NRK1-HEK293T cells, transient transfection; clarified lysate used without purification
T1 sequence (Q6SZW1 with tags, fused parts or gaps): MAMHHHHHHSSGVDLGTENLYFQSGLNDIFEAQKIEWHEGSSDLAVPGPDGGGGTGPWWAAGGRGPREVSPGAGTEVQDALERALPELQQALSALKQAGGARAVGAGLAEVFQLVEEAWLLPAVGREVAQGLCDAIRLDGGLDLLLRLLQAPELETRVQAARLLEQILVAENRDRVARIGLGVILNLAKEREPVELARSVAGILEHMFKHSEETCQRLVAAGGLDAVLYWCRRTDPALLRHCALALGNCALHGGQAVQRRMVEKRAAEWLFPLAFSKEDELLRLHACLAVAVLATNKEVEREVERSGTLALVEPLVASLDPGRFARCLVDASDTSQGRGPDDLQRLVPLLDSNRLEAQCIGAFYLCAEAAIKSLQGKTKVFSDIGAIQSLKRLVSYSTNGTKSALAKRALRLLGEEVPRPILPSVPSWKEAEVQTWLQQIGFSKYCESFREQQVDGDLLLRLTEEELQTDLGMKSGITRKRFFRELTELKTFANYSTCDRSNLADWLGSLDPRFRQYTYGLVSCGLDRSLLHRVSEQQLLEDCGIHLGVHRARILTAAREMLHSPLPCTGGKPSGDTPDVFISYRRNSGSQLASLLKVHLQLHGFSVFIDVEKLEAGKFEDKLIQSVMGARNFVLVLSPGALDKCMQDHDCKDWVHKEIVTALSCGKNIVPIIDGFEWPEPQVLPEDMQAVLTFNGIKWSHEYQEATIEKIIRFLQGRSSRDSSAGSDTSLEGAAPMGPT
Test: ARM-SAM-TIR SARM1 IC50 assay (NADase activity, NAD+ cleavage)
Type: biochemical
Settings: ARM-SAM-TIR lysate 5 μg/mL, 2 h pre-incubation, 5 μM NAD+, 2 hr room temperature, RapidFire mass spectrometry of NAD+ and ADPR
Description: This Example describes an assay of ARM-SAM-TIR NADase activity and use of this assay to measure the efficacy of compounds of Formula I/II to block SARM1 mediated NAD+ cleavage. This assay was optimized in such a way as to characterize the efficacy of the compounds in Formula I/II to inhibit SARM1 activity and to calculate an IC50 value for each compound. This assay makes use of full length SARM1, which encompasses the ARM, SAM and TIR domains.
NRK1-HEK293T cells were seeded onto 150 cm^2 plates at 20×10^6 cells per plate. The next day, the cells were transfected with 15 μg ARM-SAM-TIR expression plasmid, SEQ ID NO: 1.
The cultures were supplemented with 1 mM NR at time of transfection to minimize toxicity from ARM-SAM-TIR overexpression. Forty-eight hours after transfection, cells were harvested, pelleted by centrifugation at 1,000 rpm (Sorvall ST 16R centrifuge, Thermo Fisher), and washed once with cold PBS (0.01 M phosphate buffered saline NaCl 0.138 M; KCl 0.0027 M; pH 7.4). The cells were resuspended in PBS with protease inhibitors (cOmplete™ protease inhibitor cocktail, Roche product #11873580001) and cell lysates were prepared by sonication (Branson Sonifer 450, output=3, 20 episodes of stroke). The lysates were centrifuged (12,000×g for 10 min at 4° C.) to remove cell debris and the supernatants (containing ARM-SAM-TIR protein) were stored at −80° C. for later use in the in vitro ARM-SAM-TIR NADase assay (see below). Protein concentration was determined by the Bicinchoninic (BCA) method and used to normalize lysate concentrations.
The enzymatic assay was performed in a 384-well polypropylene plate in Dulbecco's PBS buffer in a final assay volume of 20 μL. ARM-SAM-TIR lysate with a final concentration of 5 μg/mL was pre-incubated with the respective compound at 1% DMSO final assay concentration over 2 h at room temperature. The reaction was initiated by addition of 5 μM final assay concentration of NAD+ as substrate. After a 2 hr room temperature incubation, the reaction was terminated with 40 μL of stop solution of 7.5% trichloroactetic acid in acetonitrile. The NAD+ and ADPR concentrations were analyzed by a RapidFire High Throughput Mass Spectrometry System (Agilent Technologies, Santa Clara, Calif.) using an API4000 triple quadrupole mass spectrometer (AB Sciex Framingham, Mass.).

SMILES	IC50
O=C(CCc1ccc(Cl)c(F)c1)N1CCCc2c(-c3ccnnc3)n[nH]c21 [Example 15]	< 100 nM
O=C(NCc1ccc(Cl)cc1)N1CCCc2c(-c3ccncc3)n[nH]c21 [Example 5]	1010 to 5000 nM
O=C(CCc1cnc(Cl)c(F)c1)N1CCCc2c(-c3ccnnc3)n[nH]c21 [Example 12]	< 100 nM
O=C(NCc1ccc(Cl)nc1)N1CCCc2c(-c3ccncc3)n[nH]c21 [Example 4]	> 10000 nM
O=C(CCc1ccc(Cl)cc1)N1CCCc2c(-c3ccncc3)n[nH]c21 [Example 2]	< 100 nM
O=C(CCc1ccc(Cl)nc1)N1CCC(O)c2c(-c3ccncc3)n[nH]c21 (centres unmarked) [Example 20]	100 to 1000 nM
N#Cc1ccc(CCC(=O)N2CCCc3c(-c4ccnnc4)n[nH]c32)cc1 [Example 9]	< 100 nM
O=C(CCc1ccc(Cl)cc1)N1CCOc2c(-c3ccnnc3)n[nH]c21 [Example 6]	< 100 nM
N#Cc1ccc(CCC(=O)N2CCCc3c(-c4ccncc4)n[nH]c32)cc1 [Example 8]	100 to 1000 nM
O=C(CCc1ccc(Cl)nc1)N1CCCc2c(-c3ccncc3)n[nH]c21 [Example 1]	100 to 1000 nM
O=C(CCc1ccc(Cl)cc1)N1CCCc2c(-c3ccnnc3)n[nH]c21 [Example 7]	< 100 nM
O=C1CCN(C(=O)CCc2ccc(Cl)nc2)c2[nH]nc(-c3ccncc3)c21 [Example 18]	100 to 1000 nM
O=C(CCc1ccc(Cl)cc1)N1CCC(O)c2c(-c3ccncc3)n[nH]c21 (centres unmarked) [Example 19]	< 100 nM
O=C1CCN(C(=O)CCc2ccc(Cl)cc2)c2[nH]nc(-c3ccncc3)c21 [Example 17]	< 100 nM
N#Cc1ccc(CCC(=O)N2CCCc3c(-c4ccnnc4)n[nH]c32)cc1F [Example 16]	< 100 nM
N#Cc1ccc(CCC(=O)N2CCCc3c(-c4ccncc4)n[nH]c32)cc1F [Example 14]	< 100 nM
O=C(CCc1ccc(Cl)c(F)c1)N1CCCc2c(-c3ccncc3)n[nH]c21 [Example 13]	< 100 nM
O=C(CCc1ccc(Cl)cc1)N1CCOc2c(-c3ccncc3)n[nH]c21 [Example 3]	< 100 nM
O=C(CCc1ccc(Cl)nc1)N1CCCc2c(-c3ccnnc3)n[nH]c21 [Example 10]	< 100 nM
O=C(CCc1cnc(Cl)c(F)c1)N1CCCc2c(-c3ccncc3)n[nH]c21 [Example 11]	< 100 nM
